Results: patent publication US6448245B1, “Methods of and compounds for inhibiting calpains” (The United States of America as represented by the …, priority 2000, dated 2002)
Values joined by “and” are separate entries in the source; they are usually repeats but may differ in a detail not shown here. Identical values can stand only once. “Also recorded” adds a separate entry of the source.

Columns and labels:
m-calpain = biological target: T1, m-calpain (Rattus norvegicus, UniProt Q07009); assay: Calpain inhibition in whole PC12 cells, m-calpain activation; format: cell-based; details: calcium 1.4 mM, 10 μM ionomycin
T1 construct: endogenous in cells; host or cells: whole PC12 cells
T1 sequence (Q07009 20-700 limits assumed): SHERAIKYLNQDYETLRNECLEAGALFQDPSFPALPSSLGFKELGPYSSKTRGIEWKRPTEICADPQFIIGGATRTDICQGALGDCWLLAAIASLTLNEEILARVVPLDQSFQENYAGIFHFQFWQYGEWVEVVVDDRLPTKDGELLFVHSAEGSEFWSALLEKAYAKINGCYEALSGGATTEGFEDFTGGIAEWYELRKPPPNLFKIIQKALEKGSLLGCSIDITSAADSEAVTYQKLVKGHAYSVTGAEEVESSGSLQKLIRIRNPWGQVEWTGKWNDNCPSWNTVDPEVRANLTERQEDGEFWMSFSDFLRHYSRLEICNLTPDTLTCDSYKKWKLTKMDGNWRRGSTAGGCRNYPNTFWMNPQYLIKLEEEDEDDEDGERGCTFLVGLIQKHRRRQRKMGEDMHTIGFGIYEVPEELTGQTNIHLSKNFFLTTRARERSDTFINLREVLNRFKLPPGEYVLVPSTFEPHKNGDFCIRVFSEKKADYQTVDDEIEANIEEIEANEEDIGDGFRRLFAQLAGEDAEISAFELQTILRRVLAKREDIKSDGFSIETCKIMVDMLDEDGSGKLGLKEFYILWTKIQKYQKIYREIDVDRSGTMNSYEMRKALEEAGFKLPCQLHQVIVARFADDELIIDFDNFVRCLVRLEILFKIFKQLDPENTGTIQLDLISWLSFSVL
T1 sequence (Q64537 1-270 partner): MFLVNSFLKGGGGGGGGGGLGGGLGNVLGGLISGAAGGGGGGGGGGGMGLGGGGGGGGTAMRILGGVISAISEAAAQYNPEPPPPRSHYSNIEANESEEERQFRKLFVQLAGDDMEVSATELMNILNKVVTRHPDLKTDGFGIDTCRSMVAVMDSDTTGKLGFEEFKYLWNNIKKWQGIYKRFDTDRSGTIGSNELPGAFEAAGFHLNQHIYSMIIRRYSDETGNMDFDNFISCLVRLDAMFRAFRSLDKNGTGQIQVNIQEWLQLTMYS
Protocol: Whole cell enzymatic activity was measured as previously described in DePetrillo, Neurochem. 68:1863-69 (1997). The same four inhibitor concentrations were tested, but the substrate concentration was held at 80 μM.

[1] = system: calpain (μ-calpain and m-calpain isoforms); assay: Calpain activity in PC12 cell extracts, fluorescence assay with N-succinyl-leu-tyr 7-amino-4-methylcoumarin; format: biochemical
Protocol: PC12 cells were grown in an RPMI solution containing 5% fetal bovine serum, 10% heat-inactivated horse serum, and 50 mg/L gentamicin. Cells were isolated by centrifulgation, and cell pellets suspended in 1 mL of extract buffer, containing 30 mM TRIS at pH 6.8, 15 mMEDTA, 5 mMEGTA, 1 mMDTT, […], 0.1 mg/mL AEBSF, 14.4 mM 2-mercaptoethanol, and 1% triton x-100. After 1 cycle of freeze-thaw, the cell extract was centrifuged at 4° C. at 14,000 g for 20 minutes. The supernatant was removed and assayed.
Calpain activity was measuring using N-succinyl-leu-tyr 7-amino-4-methylcoumarin as the specific peptide substrate. Fluorescence was measured in a 96-well microplate format (Dyrex Technologies (UK), Middlesex) with a 380 nm excitation filter and 480 nm emission filter. […]
Data consisting of relative fluorescence units (RFU) was obtained every two minutes for 1 hour. Data was analyzed based on initial rate, defined as the slope of the increase of the obtained RFU value up to a maximum length of 10 minutes. […]
Model sufficiency was evaluated based on whether the objective function converged with a tolerance factor of 1×10^−10, the overall F-value for the regression, and the magnitude and sign of the parameters obtained after convergence. […]

[2] = system: hippocampal primary neurons
Protocol: Hippocampal primary neuron cell cultures were prepared according to the methods described by Mattson, et al., Methods Cell Biol., 46:187-216 (1995). Hippocampi were obtained from rat embryos and incubated for 15 minutes in a solution of 2 mg/ml trypsin in Hank's Balanced Salt Solution (HBSS) containing 2.4 g/l N-[2-hydroxyethyl]piperazine-N′-[2-ethanesulfonic acid] (HEPES) and 10 mg/l gentamicin, pH 7.2 at a concentration of 2 hippocampi/ml. The hippocampi were then rinsed three times in 10 ml of HBSS and incubated for 5 min. in a solution of 1 mg trypsin inhibitor/ml of HBSS. Finally, the cells were rinsed three times with 10 ml of HBSS.
Cells were dissociated by trituration through the narrowed bore of a fire-polished Pasteur pipette and distributed to 35 mm polyethylenimine-coated plastic culture dishes containing 1 ml of MEM+. […]
Each of the cultures was photographed with phase-contrast inverted Zeiss microscope attached with a 35 mm camera at pre-treatment, 24 hours, and 48 hours after treatment at the same location marked by a scratched grid on the bottom of culture dish. […] Neuronal survival was quantified by counting the number of neurons on each of the photos. Neuronal viability was identified and determined by morphological criteria: viable neurons had phase-bright somas and intact processes while nonviable neurons had phase-dark, vacuolated somas, and fragmented neuritis. […]

[3] = system: calpain-mediated spectrin breakdown; assay: Spectrin breakdown in PC12 cells, western blot with anti-spectrin antibodies; format: cell-based; details: 0.1 μM, 2 mM Ca2+ fifteen minutes, 10 μM ionomycin
Excerpt: A western blot of the cell extracts was probed with anti-spectrin antibodies (commercially available from Chemicon International, Inc., of Temecula, Calif.). Undigested spectrin appeared as a band at approximately 240 kD. The spectrin breakdown products appeared at approximately 150 kD, and followed a ladder pattern associated with limited and specific proteolysis.

- mode of inhibition (m-calpain): competitive inhibition
Compound: CC(C)c1nc(CN(C)C(=O)NC(C(=O)N[C@@H](Cc2ccccc2)CC(O)[C@H](Cc2ccccc2)NC(=O)OCc2cncs2)C(C)C)cs1 (relative stereo) [Ritonavir, 10-hydroxy-2-methyl-5-(1-methylethyl)-1-[2-(1-methylethyl)-4-thiazolyl]-3,6-dioxo-8,11-bis(phenylmethyl)-2,4,7,12-tetraazatridecan-13-oic acid, 5-thiazolylmethyl ester, [5S-(5R*,8R* 10R* 11R*)]]
- level of cytoprotection ([2]; 100 pM + HNE, no difference from control group): 100%
- cell death ([2]; rat, 24 h, 10 μM, pH 7.2): ~100%
- inhibition of spectrin breakdown [3]: inhibit spectrin breakdown
